Measurements reported in PubChem BioAssay AID179 (DTP/NCI, 2004).
Activity calls are given as the source filed them.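 The calls were made as follows: active = compounds giving half or more protection of infected cells from virus-caused growth loss, again on retest; inactive = the rest.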 Where a SMILES comes first, the peptide text is derived from it. The star is where a group is joined. Boc = CC(C)(C)OC(=O)*; OBn = c1ccc(CO*)cc1

Test system: CEM cells HIV-1 protection, formazan growth assay
Assay: NCI AIDS Antiviral Assay
Settings: for IC50: measured here: growth of uninfected CEM cells
How it was run: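 Human CEM cells, uninfected and HIV-1-infected, exposed to five drug concentrations; growth measured by soluble formazan assay and scored as percent protection from infection, with protecting compounds retested.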

Row | SMILES | EC50 | IC50 | outcome
1 | Cc1cn(C2CC(N=[N+]=[N-])C(COC(=O)CCCCCCCCCCCF)O2)c(=O)[nH]c1=O (centres undefined) | 0.162 µM | 2 µM | –
2 | O=C(O)c1cscc1C(=O)O | > 200 µM | > 200 µM | –
3 | S=c1cc(S)sc2c1c(=S)sc1nc3ccccn3c(=S)c12 | > 9.55 µM | > 9.55 µM | –
4 | O=C1/C(=C/c2cccc(F)c2)CCCc2ccccc21 | > 200 µM | 19.5 µM | –
5 | O=C(Nc1ccccc1-c1nc2ccccc2[nH]c1=O)c1ccccc1 | > 52.5 µM | 29.5 µM | –
6 | CCC(=O)OC1CCn2c1nc1c2C(=O)C(C)=C(NC(C)=O)C1=O (centres undefined) | > 200 µM | 1.23 µM | –
7 | Oc1cc(N2CCCC2)ccc1/C=N/N1C(=S)N(c2ccccc2)C(=Nc2ccccc2)C1=Nc1ccccc1 | > 100 µM | > 100 µM | –
8 | COc1ccc(N)c(CC2c3ccccc3CCN2C)c1 (centres undefined) | – | – | inactive
9 | O=[N+]([O-])c1cccc(N=Cc2ccccc2O)c1 | > 200 µM | 91.2 µM | –
10 | CC1=C(C#N)C(=C(C#N)C#N)OC1(C)Cc1ccccc1 (centres undefined) | > 200 µM | 112 µM | –
11 | C#CCNC(=O)ON1C(=O)CCC1=O | > 1260 µM | > 1260 µM | –
12 | C/C(=N\NS(=O)(=O)c1ccccc1)c1ccc[n+]([O-])n1 | – | – | inactive
13 | Cc1ccc(S(=O)(=O)N/N=C(/c2nc3ccc([N+](=O)[O-])cc3[nH]c2=O)C(O)c2ccc(C(O)/C(=N\NS(=O)(=O)c3ccc(C)cc3)c3nc4ccc([N+](=O)[O-])cc4[nH]c3=O)cc2)cc1 (centres undefined) | > 39.8 µM | > 39.8 µM | –
14 | CC(NC(=O)C(NC(=O)OC(C)(C)C)C(C)C)C(=O)N1CCCC1C(=O)NCC(=O)NC(C(=O)NCC(=O)OCc1ccccc1)C(C)C (centres undefined) (Boc-VAPGVG-OBn; configuration not given here) | > 200 µM | > 200 µM | –
15 | O=c1c2cccnc2nc2ccc3c[nH][nH]c3c12 | > 200 µM | 87.1 µM | –
16 | S=c1cn[nH]c2c(Cl)cccc12 | > 107 µM | 81.3 µM | –
17 | CC1=CC(N2C(=O)C(C)=CC2O)NC1=O (centres undefined) | – | – | inactive
18 | COC(=O)CN1C(=O)c2cccc3cc([N+](=O)[O-])cc(c23)C1=O | > 200 µM | 21.9 µM | –
19 | O=C(Cc1ccccc1)NNc1nc(NNC(=O)c2ccncc2)nc(Nc2ccc([N+](=O)[O-])cc2)n1 | > 100 µM | 11.5 µM | –
20 | CC1(C(N)=O)OC12CCCCC2 (centres undefined) | > 200 µM | > 200 µM | –
21 | CC1(C)CNC[C@@](C)(OCc2ccccc2)C(=O)[N-]C(C)(C)CNC[C@@](C)(OCc2ccccc2)C(=O)[N-]1.[Ni+2] | > 200 µM | 105 µM | –

Row | SMILES | EC50 | IC50 | outcome
22 | CCNc1ccccc1S(=O)(=O)c1ccccc1[N+](=O)[O-] | > 0.741 µM | – | –
23 | [N-]=[N+]=CC(=O)C1CCCN1C(=O)c1ccccc1 (centres undefined) | > 200 µM | > 200 µM | –
24 | CC1(C)OCC(C(O)C2OC(C)(C)OC2C=O)O1 (centres undefined) | > 200 µM | > 200 µM | –
25 | CC1CN=C(N(C(=O)Nc2ccccc2)c2ccccc2)S1 (centres undefined) | > 200 µM | > 200 µM | –
26 | N#Cc1c2c(c(Nc3ccc(F)cc3)n3c1nc1ccccc13)CCCC2 | > 200 µM | 81.3 µM | –
27 | Nc1c(-c2nc3ccccc3s2)c2ccc([N+](=O)[O-])cc2c(=O)n1-c1cccc(C(=O)O)c1 | 7.76 µM | 37.2 µM | –
28 | O=c1c2nn3c(=O)n(-c4ccccc4)c(=O)c3nn2c(=O)n1-c1ccccc1 | > 200 µM | > 200 µM | –
29 | C/C=C/C1(C)/C(=N\O)C(C)(CCC)C(=O)N1O (centres undefined) | 25.1 µM | 1050 µM | –
30 | COc1ccc2[nH]c3c(=O)[nH]ncc3c2c1 | – | – | inactive
31 | CCOC(=O)c1cn2ccccc2c(C(=O)c2cccnc2)c1=N | > 50.1 µM | > 50.1 µM | –
32 | CCC12C=CCN3CC[C@@]4(c5cc([C@@]6(C(=O)OC)CC7CN(CCc8c6[nH]c6ccccc86)C[C@](O)(CC)C7)c(OC)cc5N(C)[C@H]4[C@]4(OCOC4=O)[C@@H]1O)C32 (some centres undefined) | – | – | inactive
33 | CC(=O)OC1CCC2(C)C(CCC3C4CCC(C(C)OC(C)=O)C4NC(=O)CC32)C1 (centres undefined) | – | – | inactive
34 | O=C(/C=C/c1cccc(F)c1)c1ccccc1 | > 31.6 µM | 19.1 µM | –
35 | CCC(=O)NC1=CC(=O)C(=O)c2cccnc21 | – | – | inactive
36 | COc1cc(Cc2nnc(N)nc2N)cc(OC)c1OC | > 17.8 µM | > 17.8 µM | –
37 | CCOC(=O)c1ccc(CS(=O)(=O)c2ccccc2C(=O)OCC)c([N+](=O)[O-])c1 | > 85.1 µM | > 85.1 µM | –
38 | O=C(Cn1c2ccc(Br)cc2c2nc3ccccc3nc21)NNC(=O)NC1CCCCC1 | > 200 µM | 182 µM | –
39 | Cc1ccc2nc(NC(=O)C(=O)CC(=O)c3cccc4ccccc34)sc2c1 | > 33.9 µM | > 33.9 µM | –
40 | CCCCCCCCC1=C(OC)C(=O)c2cccnc2C1=O | – | – | inactive
41 | O=C(CCl)Nc1ccc(SSc2ccc(NC(=O)CCl)cc2)cc1 | > 2 µM | 1.35 µM | –
42 | CC(=O)Oc1ccc(CCC(=O)O[C@H](C(=O)O)[C@H](OC(=O)CCc2ccc(OC(C)=O)c(OC(C)=O)c2)C(=O)O)cc1OC(C)=O | > 53.7 µM | 30.2 µM | –

Row | SMILES | EC50 | IC50 | outcome
43 | NC(=O)CNCCS(=O)(=O)O | > 200 µM | > 200 µM | –
44 | Cc1cc(S(=O)(=O)NC2=NCc3nc4ccccc4n32)c(S)cc1Cl | > 200 µM | 35.5 µM | –
45 | CC(=O)NNc1nc(C)c(C(=O)NNC(=O)C(=O)Nc2ccc([N+](=O)[O-])cc2C#N)s1 | > 407 µM | 331 µM | –
46 | CNc1ncc2nc(C)c(=O)n(C)c2n1 | > 200 µM | > 200 µM | –
47 | N=C1SCC(=O)N1CCN1C(=N)SCC1=O | > 79.4 µM | > 79.4 µM | –
48 | Cc1nnc(N)nc1/C=C/c1c(O)ccc2ccccc12 | > 200 µM | 26.3 µM | –
49 | BrCc1ccccc1C[P+](c1ccccc1)(c1ccccc1)c1ccccc1 | > 200 µM | 2.45 µM | –
50 | Cc1ccc(C(=O)N2c3ccccc3N(C)n3cccc3C2CC(=O)O)cc1 (centres undefined) | > 661 µM | 148 µM | –
51 | CC1=CCCC(C)C1(C)CC/C(C)=C/CC/C(=C/CS(=O)(=O)CCN=C(N)N)CO (centres undefined) | > 81.3 µM | 15.1 µM | –
52 | CC1=C(C(=O)NCc2ccccc2)C(/C=C/c2ccccc2)C(C(=O)NCc2ccccc2)=C(C)N1 | – | – | inactive
53 | NC1=C(c2nc(-c3cc4ccccc4oc3=O)cs2)C(c2ccco2)c2c(c3ccccc3oc2=O)O1 (centres undefined) | > 100 µM | > 100 µM | –
54 | NNC(=O)/C(=C/c1cccc([N+](=O)[O-])c1)NC(=O)c1ccccc1 | > 398 µM | > 398 µM | –
55 | Cc1cccc(C)c1NC(=O)CCc1nc(=S)[nH][nH]1 | > 468 µM | > 468 µM | –
56 | COc1cccc(C[C@H]2C(=O)OC[C@@H]2Cc2ccc(OC)c(OC)c2)c1 | > 200 µM | 57.5 µM | –
57 | CCOC(=O)C1=C(C)NC(CO)=C(C(=O)OCC)C1c1cccc([N+](=O)[O-])c1 (centres undefined) | > 2 µM | 0.355 µM | –
58 | CC(C)NC(=O)OCc1nnn2c1CCC2 | – | – | inactive
59 | Cc1ccc(C(CC(=O)C(C)(C)CN2CCCCC2)SCCS(=O)(=O)O)cc1 (centres undefined) | > 200 µM | 3.63 µM | –
60 | CCOC(=O)NC1=NCC(C)S1 (centres undefined) | – | – | inactive
61 | O=[N+]([O-])c1ccc(O)c(/C=N\NC(=S)Nc2ccc(F)cc2)c1 | > 77.6 µM | > 77.6 µM | –
62 | O=C(CCC(=O)Nc1ccc(C2=NCCN2)cc1)Nc1ccc(C2=NCCN2)cc1 | 95.5 µM | 141 µM | –
63 | C=C1CN(S(=O)(=O)c2ccc(C)cc2)CCCN(C(=O)OC)CCCN(S(=O)(=O)c2ccc(C)cc2)C1 | > 200 µM | 107 µM | –
